Assay results taken from publication PMC4839570, “Novel Anthra[1,2-c][1,2,5]Thiadiazole-6,11-Diones as Promising Anticancer Lead Compounds: Biological Evaluation, Characterization & Molecular Targets Determination” (PLoS ONE, 2016).
Read-outs that look alike come from different tables or passages of the source.

Assays:
MKN45 = assay: JFCR-39 cytotoxicity screen; assay type: cell-based
BSY-1 = assay: JFCR-39 cytotoxicity screen; assay type: cell-based
SK-OV-3 = assay: JFCR-39 cytotoxicity screen; assay type: cell-based
OVCAR-8 = assay: JFCR-39 cytotoxicity screen; assay type: cell-based
HBC-4 = assay: JFCR-39 cytotoxicity screen; assay type: cell-based
OVCAR-3 = conditions: JFCR
A498 = assay: NCI-60 cytotoxicity screen; assay type: cell-based
NCI-H322M = assay: NCI-60 cytotoxicity screen; assay type: cell-based
NCI-H460 = assay: NCI-60 cytotoxicity screen; assay type: cell-based
RXF-631L = assay: JFCR-39 cytotoxicity screen; assay type: cell-based
SNB-19 = assay: NCI-60 cytotoxicity screen; assay type: cell-based
HS 578T = assay: NCI-60 cytotoxicity screen; assay type: cell-based; conditions: Homo sapiens
HOP-62 = assay: NCI-60 cytotoxicity screen; assay type: cell-based
UO-31 = assay: NCI-60 cytotoxicity screen; assay type: cell-based
RPMI-8226 = assay: NCI-60 cytotoxicity screen; assay type: cell-based
DMS273 = assay: JFCR-39 cytotoxicity screen; assay type: cell-based
HCC2998 = assay: JFCR-39 cytotoxicity screen; assay type: cell-based
HOP-92 = assay: NCI-60 cytotoxicity screen; assay type: cell-based
HCT-15 = assay: NCI-60 cytotoxicity screen; assay type: cell-based
HT29 = assay: NCI-60 cytotoxicity screen; assay type: cell-based
UACC-257 = assay: NCI-60 cytotoxicity screen; assay type: cell-based
[1] = system: JFCR 39 human cancer cell lines; assay: JFCR-39 screen, means, ranges and selectivity over panels; assay type: cell-based; conditions: for GI50: Homo sapiens
Experimental: Both NSC745885 and NSC757963 satisfied the pre-determined threshold inhibition criteria of the NCI-60 One-Dose Screening, so they were tested against the panels of 60 cancer cell lines of NCI (NCI-60) and 39 cancer cell lines of JFCR (JFCR-39), each cell line was tested at five small doses of our compounds. Results are expressed as the 50% growth inhibition concentration (GI50), the 50% lethal concentration (LC50) and the total growth inhibition (TGI), compared to the values of untreated control cells.
To characterize the selectivity of NSC745885 and NSC757963 further among the different types of cancer, we determined their selectivity ratios towards each cell line subpanel used in the cytotoxicity experiments. […] The promising activity of this compound is evident from the small mean GI50 values. […] The strongest activity was towards the leukemia subpanel and the least one was towards the colon cancer subpanel. […] The strongest activity was towards the melanoma subpanel and the least one was towards the colon cancer subpanel.
All cell lines were published before.

BT-549 = assay: NCI-60 cytotoxicity screen; assay type: cell-based
HT-29 = assay: JFCR-39 cytotoxicity screen; assay type: cell-based
[2] = Homo sapiens, read-out: LC50 (the source's name)
[3] = Homo sapiens, Fig 7, read-out: mean log10 of the GI50 values (converted)
[4] = Homo sapiens, five-dose, read-out: GI50
[5] = Homo sapiens, five-dose, read-out: LC50 (the source's name)

O=C1c2ccccc2C(=O)c2c1cc(Cl)c1nsnc21 [NSC757963]
TGI (MKN45): 5.1 µM | GI50 (MKN45; Homo sapiens, MKN-45): 2 µM | CC50 (MKN45; Homo sapiens, MKN-45, read-out: LC50 (the source's name)): 17 µM | TGI (BSY-1): 3.2 µM | GI50 (BSY-1; Homo sapiens): 1.7 µM | CC50 (BSY-1; [2]): 6 µM | TGI (SK-OV-3): 14.0 µM | GI50 (SK-OV-3; Homo sapiens): 3.2 µM | CC50 (SK-OV-3; [2]): 38 µM | TGI (OVCAR-8): 4.8 µM | GI50 (OVCAR-8; Homo sapiens): 2.1 µM | CC50 (OVCAR-8; [2]): > 100 µM | TGI (HBC-4): 3.1 µM | GI50 (HBC-4; Homo sapiens, HBC4): 1.7 µM | CC50 (HBC-4; Homo sapiens, HBC4, read-out: LC50 (the source's name)): 5.6 µM | TGI (OVCAR-3): 4.2 µM | GI50 (A498; [3]): 85.1 µM | GI50 (A498; [4]): 72.8 µM | CC50 (A498; [5]): > 100 µM | TGI (A498; five-dose): >100 µM | GI50 (NCI-H322M; [3]): 30.9 µM | GI50 (NCI-H322M; [4]): 18.6 µM | CC50 (NCI-H322M; [5]): 71 µM | TGI (NCI-H322M; five-dose): 36.3 µM | GI50 (NCI-H460; Homo sapiens, NCI-460, five-dose, read-out: GI50): 30.2 µM | CC50 (NCI-H460; Homo sapiens, NCI-460, five-dose, read-out: LC50 (the source's name)): > 100 µM | GI50 (NCI-H460; Homo sapiens, NCI-H460, Fig 7, read-out: mean log10 of the GI50 values (converted)): 33.1 µM | TGI (NCI-H460; NCI-460, five-dose): >100 µM | TGI (RXF-631L): 3.1 µM | GI50 (RXF-631L; Homo sapiens): 1.7 µM | CC50 (RXF-631L; [2]): 5.9 µM | GI50 (SNB-19; [3]): 9.55 µM | GI50 (SNB-19; [4]): 13.9 µM | CC50 (SNB-19; [5]): 58.9 µM | TGI (SNB-19; five-dose): 28.6 µM | GI50 (HS 578T; Hs-578T, HS578T, Fig 7, read-out: mean log10 of the GI50 values (converted)): 2.51 µM | GI50 (HS 578T; HS 578T, five-dose, read-out: GI50): 2.38 µM | CC50 (HS 578T; HS 578T, five-dose, read-out: LC50 (the source's name)): > 100 µM | GI50 (HOP-62; [3]): 3.89 µM | GI50 (HOP-62; [4]): 4.95 µM | CC50 (HOP-62; [5]): 43.3 µM | TGI (HOP-62; five-dose): 17.3 µM | GI50 (UO-31; [3]): 6.31 µM | GI50 (UO-31; [4]): 14 µM | CC50 (UO-31; [5]): 52.4 µM | TGI (UO-31; five-dose): 27.1 µM | GI50 (RPMI-8226; [3]): 2.88 µM | GI50 (RPMI-8226; [4]): 3.15 µM | CC50 (RPMI-8226; [5]): > 100 µM | TGI (RPMI-8226; five-dose): 53.2 µM | TGI (DMS273): 4.1 µM | GI50 (DMS273; Homo sapiens, DMS-273): 2.1 µM | CC50 (DMS273; Homo sapiens, DMS-273, read-out: LC50 (the source's name)): 8.1 µM | TGI (HCC2998): 3.5 µM | GI50 (HCC2998; Homo sapiens, HCC 2998): 1.9 µM | CC50 (HCC2998; Homo sapiens, HCC 2998, read-out: LC50 (the source's name)): 6.4 µM | GI50 (HOP-92; [3]): 1.45 µM | GI50 (HOP-92; [4]): 1.43 µM | CC50 (HOP-92; [5]): 7.84 µM | TGI (HOP-92; five-dose): 3.34 µM | GI50 (HCT-15; [3]): 6.61 µM | GI50 (HCT-15; [4]): 10.2 µM | CC50 (HCT-15; [5]): 55.9 µM | TGI (HCT-15; five-dose): 23.8 µM | GI50 (HT29; Homo sapiens, HT-29, Fig 7, read-out: mean log10 of the GI50 values (converted)): 19.5 µM | GI50 (HT29; Homo sapiens, HT-29, five-dose, read-out: GI50): 19.2 µM | CC50 (HT29; Homo sapiens, HT-29, five-dose, read-out: LC50 (the source's name)): 98.2 µM | TGI (HT29; five-dose): 43.4 µM | GI50 (UACC-257; [3]): 7.76 µM | GI50 (UACC-257; [4]): 14.5 µM | CC50 (UACC-257; [5]): 53.5 µM | TGI (UACC-257; five-dose): 27.8 µM | selectivity ratios of the JFCR subpanels (for NSC745885 except melanoma) [1]: less than 3 | GI50 ([1]; JFCR Breast Cancer, read-out: Mean GI50 of subpanel): 1.72 µM | GI50 ([1]; JFCR CNS Cancer, read-out: Mean GI50 of subpanel): 2 µM | GI50 ([1]; JFCR Colon Cancer, read-out: Mean GI50 of subpanel): 5.94 µM | GI50 ([1]; JFCR Lung Cancer, read-out: Mean GI50 of subpanel): 5.86 µM | GI50 ([1]; JFCR Melanoma, read-out: Mean GI50 of subpanel): 1.9 µM | GI50 ([1]; JFCR Ovarian Cancer, read-out: Mean GI50 of subpanel): 2.08 µM | GI50 ([1]; JFCR Prostate Cancer, read-out: Mean GI50 of subpanel): 2.05 µM | GI50 ([1]; JFCR Renal Cancer, read-out: Mean GI50 of subpanel): 1.75 µM | GI50 ([1]; JFCR Stomach Cancer, read-out: Mean GI50 of subpanel): 1.97 µM | GI50 ([1]; all JFCR subpanels, read-out: mean GI50 values of the JFCR subpanels, range): 1.72 to 5.9 µM | GI50 ([1]; equivalent to MG-MID, read-out: Mean GI50 of all JFCR-39 cell line panels): 3.15 µM | GI50 ([1]; five-dose, read-out: JFCR-39 GI50 values, range over cell lines): 1 to 21 µM | Selectivity ratio ([1]; JFCR Breast Cancer): 1.83 | Selectivity ratio ([1]; JFCR CNS Cancer): 1.58 | Selectivity ratio ([1]; JFCR Colon Cancer): 0.53 | Selectivity ratio ([1]; JFCR Lung Cancer): 0.54 | Selectivity ratio ([1]; JFCR Melanoma): 1.66 | Selectivity ratio ([1]; JFCR Ovarian Cancer): 1.52 | Selectivity ratio ([1]; JFCR Prostate Cancer): 1.54 | Selectivity ratio ([1]; JFCR Renal Cancer): 1.8 | Selectivity ratio ([1]; JFCR Stomach Cancer): 1.6 | GI50 (BT-549; [3]): 15.8 µM | GI50 (BT-549; [4]): 18.1 µM | CC50 (BT-549; [5]): 58.9 µM | TGI (BT-549; five-dose): 32.7 µM | TGI (HT-29): 45.0 µM | GI50 (HT-29; Homo sapiens): 21 µM | CC50 (HT-29; [2]): 98 µM
